Assay results as given in patent US8097422B2, “Kir channel modulators” (Salk Institute for Biological Studies, priority 2007, dated 2012).
Numbering of substitutions follows the chain as printed.

Tests used:
Assay type in all cases: cell-based
[1] = target: T1, GIRK2 PIP S148T mutant channel (Mus musculus, UniProt P48542, D228N/I234L/M344L/N231K/S148T); experiment: whole-cell patch clamp, GIRK2 PIP S148T mutant channel; details: 50 mM alcohols
T1 construct: expressed in transfected cells; host or cells: HEK293 / HEK293T
T1 sequence (P48542 1-425 S148T/D228N/N231K/I234L/M344L): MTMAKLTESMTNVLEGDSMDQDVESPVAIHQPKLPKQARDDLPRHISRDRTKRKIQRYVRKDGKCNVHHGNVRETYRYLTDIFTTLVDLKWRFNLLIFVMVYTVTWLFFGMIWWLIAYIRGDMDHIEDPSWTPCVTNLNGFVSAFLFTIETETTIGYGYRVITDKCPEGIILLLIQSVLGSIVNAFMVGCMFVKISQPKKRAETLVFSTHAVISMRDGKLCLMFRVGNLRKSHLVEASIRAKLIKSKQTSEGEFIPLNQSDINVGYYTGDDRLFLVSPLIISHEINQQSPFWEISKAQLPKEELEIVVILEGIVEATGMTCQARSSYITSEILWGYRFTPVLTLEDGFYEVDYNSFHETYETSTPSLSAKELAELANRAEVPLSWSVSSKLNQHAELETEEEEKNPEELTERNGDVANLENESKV
Protocol: (§1) Point mutations were introduced by Quickchange site directed mutagenesis kit (Stratagene). The GIRK2 PIP mutant was generated by overlap-PCR method. […] Mutations were confirmed by automated DNA sequencing methods. […] Cells were plated in a 12 well dish, and were transiently transfected using Lipofectamine 2000 (Invitrogen). After 12-24 hrs, cells were re-plated to 12-mm glass coverslips coated with poly-D-[…] microgram/ml). […] The cells were co-transfected with 0.04 micrograms of eYFP cDNA to identify transfected cells. 0.8 micrograms of Muscarinic Receptor 2 (M2R) was also co-transfected for experiments with Carbachol. […] Whole-cell patch clamp recordings were performed 24-72 hrs after transfection. […] Alcohols, 5 μM Carbachol, and 1 mM BaCl2 (diluted in 20K solution) were applied from outside the cell with the rapid perfusion system (Warner Instruments). […] Current-voltage relationships also were obtained from the ramp protocol. This protocol was used to measure the inwardly rectifying currents at -100 mV and to ensure stability of recording by monitoring a reversal potential and inward rectification. […] Alcohol and Carbachol modulated currents were measured by averaging two consecutive current readings upon reaching steady state, and subtracting the averaged basal current before and after the application of modulator.

[2] = target: T2, GIRK2 Y349W mutant channel (Mus musculus, UniProt P48542, Y349W); experiment: whole-cell patch clamp, GIRK2 Y349W mutant channel; details: n=10
T2 construct: expressed in transfected cells; host or cells: HEK293T
Protocol: as §1

[3] = tested on: GIRK2 PIP S148T mutant channel; experiment: whole-cell patch clamp, GIRK2 PIP S148T mutant channel; details: GIRK2 PIP S148T compared with GIRK2 PIP L257W
Protocol: as §1

Kir3 channels [4] = experiment: patch-clamp determination of ion transport activity: activation of Kir3 channels; details: Kir3 activation or Kir2 inactivation
From the text: (§2) It has been determined that inwardly rectifying potassium (Kir) channels are regulated directly by small molecule alcohol compounds. Three-dimensional crystallographic analysis of Kir channels has elucidated atomic details of binding pocket interactions with 2-methyl-2,4-pentanediol (MPD). MPD inhibits Kir2 channel activity and activates Kir3 channel activity. Amino acid substitutions in this hydrophobic pocket of the channel protein may alter the response to MPD. As determined by patch-clamp determinations of ion transport activity, a racemic mixture of 2-methyl-2,4-pentanediol, (±)MPD, activates Kir3 channels with an EC50 of >200 mM and inhibits Kir2 homotetramer channels with an IC50 of ˜200 mM. […] Bupivacaine inhibits Kir3.1/3.4 and Kir3.1/3.2 channels with an IC50 of ˜20-40 micromolar.
(§3) The following also were observed. Maximal activation of Kir3 channels by 100 mM (±)MPD is 280% that of 100 mM EtOH. Maximal activation of Kir3 channels by 100 mM R(−)2 methyl-2,4-pentanediol is 60% that of 100 mM (±)MPD. Maximal activation of Kir3 channels by 100 mM 3-methyl-1,3,5-pentanetriol is 70% that of 100 mM (±)MPD. Maximal activation of Kir3 channels by 100 mM 2,5-dimethyl-1,2,6-hexanetriol is 70% that of 100 mM (±)MPD. Maximal activation of Kir3 channels by 100 mM (±) 2,4-pentanediol is 50% that of 100 mM (±)MPD.

Kir3 channels [5] = target: T3, Kir3 channels (Mus musculus, UniProt P48542); experiment: as above; details: read-out: Maximal activation of Kir3 channels relative to that of 100 mM EtOH
T3 construct: other: patch-clamp; other: 100 mM
T3 sequence (P48542 1-425): T1 sequence (P48542 1-425 S148T/D228N/N231K/I234L/M344L) with T148S, N228D, K231N, L234I, L344M
From the text: as §2, §3

[6] = target: T4, Kir2 homotetramer channels (Mus musculus, UniProt P35561); experiment: patch-clamp determination of ion transport activity: inhibition of Kir2 channels (Kir2.1 expressed in HEK293 cells); details: as stated in the detailed description; read-out: IC50 for inhibition of Kir 2.1 channels
T4 construct: expressed in transfected cells; host or cells: HEK293
From the text: as §2
The effect of MPD on Kir2 channel activity was analyzed further. […] The fractional current remaining is plotted as a function of MPD concentration. The response for each cell was fit with the Hill equation. The average IC50 and Hill coefficients are shown (n=6).

T2 sequence (P48542 whole entry Y349W): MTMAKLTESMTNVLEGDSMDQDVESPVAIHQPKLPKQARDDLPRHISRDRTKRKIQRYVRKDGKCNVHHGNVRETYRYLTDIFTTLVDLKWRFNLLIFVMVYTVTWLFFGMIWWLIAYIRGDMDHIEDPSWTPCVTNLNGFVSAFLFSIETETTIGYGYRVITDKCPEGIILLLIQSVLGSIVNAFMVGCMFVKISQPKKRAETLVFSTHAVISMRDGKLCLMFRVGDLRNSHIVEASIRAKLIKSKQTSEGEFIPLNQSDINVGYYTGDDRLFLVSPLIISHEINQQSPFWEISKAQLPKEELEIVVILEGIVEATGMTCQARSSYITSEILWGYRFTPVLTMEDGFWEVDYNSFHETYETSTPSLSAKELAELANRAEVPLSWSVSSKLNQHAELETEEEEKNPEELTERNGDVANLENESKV
T4 sequence (P35561 whole entry): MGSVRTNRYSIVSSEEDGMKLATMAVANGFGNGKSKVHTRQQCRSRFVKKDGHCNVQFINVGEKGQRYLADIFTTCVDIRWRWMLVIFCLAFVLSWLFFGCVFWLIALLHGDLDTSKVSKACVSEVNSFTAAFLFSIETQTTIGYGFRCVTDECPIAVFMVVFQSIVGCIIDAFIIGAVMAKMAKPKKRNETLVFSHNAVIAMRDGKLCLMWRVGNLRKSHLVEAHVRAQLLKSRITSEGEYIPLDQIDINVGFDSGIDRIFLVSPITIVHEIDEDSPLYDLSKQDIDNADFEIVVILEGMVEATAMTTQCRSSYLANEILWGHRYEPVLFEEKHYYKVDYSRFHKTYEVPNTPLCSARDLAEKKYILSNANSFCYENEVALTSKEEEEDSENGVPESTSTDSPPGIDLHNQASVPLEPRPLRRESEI

Compound	inhibition of GIRK2 PIP S148T, percentage inhibition [1]	change in sensitivity to inhibition when Ser at the P-loop is mutated to Thr [3]	further results
1-butanol [1-BuOH]	−28±1%		
1-propanol [1-PrOH]	−15±1%	~100 fold	1-PrOH activated current, GIRK2 Y349W, percentage change from basal current [2]: 256±25%
CC(O)CC(C)(C)O (racemic) [MPD, 2-methyl-2,4-pentanediol]	−36±1%	~20 fold	time course of inactivation or activation after application (Kir3 channels [4]): within seconds; Emax at 100000 µM (Kir3 channels [5]): 280%; IC50 [6]: ~100 mM
C[N+](C)(C)CCOC(N)=O [Carbachol]			Carbachol activated current, GIRK2 Y349W, percentage change from basal current ([2]; 5 μM Carbachol): 56±5
CCO [EtOH, ethanol]	−4±1%		
